This note sets out measurements from patent publication US20100029617A1, “1,4,5,6,7,8-HEXAHYDRO-1,2,5-TRIAZA-AZULENE DERIVATIVES AS OREXIN RECEPTOR ANTAGONISTS” (Actelion Pharmaceuticals Ltd., priority 2006, published 2010).

Read-outs that look alike come from different tables or passages of the source.

The target in one assay is T1, human orexin-2 receptor (Homo sapiens, UniProt O43614).
T1 construct: expressed in transfected cells; host or cells: CHO cells (G418 selection)
T1 sequence (O43614 1-444): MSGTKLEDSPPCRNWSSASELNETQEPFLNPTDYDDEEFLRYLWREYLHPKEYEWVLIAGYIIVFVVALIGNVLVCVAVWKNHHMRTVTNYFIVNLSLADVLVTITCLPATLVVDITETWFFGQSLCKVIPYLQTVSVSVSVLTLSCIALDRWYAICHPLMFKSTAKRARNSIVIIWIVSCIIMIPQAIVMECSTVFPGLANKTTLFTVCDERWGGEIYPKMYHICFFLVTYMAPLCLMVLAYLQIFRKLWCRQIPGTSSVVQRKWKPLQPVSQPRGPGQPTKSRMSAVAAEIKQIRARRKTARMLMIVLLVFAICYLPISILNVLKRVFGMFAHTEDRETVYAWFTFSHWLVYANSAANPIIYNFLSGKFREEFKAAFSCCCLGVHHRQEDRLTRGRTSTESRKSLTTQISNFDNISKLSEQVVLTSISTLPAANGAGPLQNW
The experiment in a line: Intracellular calcium measurements (FLIPR), orexin receptor antagonistic activity. Conditions: read-out: IC50 OX2. Format: cell-based. The protocol: (§1) The orexin receptor antagonistic activity of the compounds of formula (II) is determined in accordance with the following experimental method.
(§2) Intracellular Calcium Measurements:
(§3) Chinese hamster ovary (CHO) cells expressing the human orexin-1 receptor and the human orexin-2 receptor, respectively, are grown in culture medium (Ham F-12 with L-Glutamine) containing 300 μg/ml G418, 100 U/ml penicillin, 100 μg/ml streptomycin and 10% inactivated fetal calf serum (FCS). The cells are seeded at 80'000 cells/well into 96-well black clear bottom sterile plates (Costar) which have been precoated with 1% gelatine in Hanks' Balanced Salt Solution (HBSS). All reagents are from Gibco BRL. The seeded plates are incubated overnight at 37° C. in 5% CO2.
(§4) Human orexin-A as an agonist is prepared as 1 mM stock solution in methanol:water (1:1), diluted in HBSS containing 0.1% bovine serum albumin (BSA) and 2 mM HEPES for use in the assay at a final concentration of 10 nM.
(§5) Antagonists are prepared as 10 mM stock solution in DMSO, then diluted in 96-well plates, first in DMSO, then in HBSS containing 0.1% bovine serum albumin (BSA) and 2 mM HEPES.
(§6) On the day of the assay, 100 μl of loading medium (HBSS containing 1% FCS, 2 mM HEPES, 5 mM probenecid (Sigma) and 3 μM of the fluorescent calcium indicator fluo-3 AM (1 mM stock solution in DMSO with 10% pluronic acid) (Molecular Probes) is added to each well.
(§7) The 96-well plates are incubated for 60 min at 37° C. in 5% CO2. The loading solution is then aspirated and cells are washed 3 times with 200 μl HBSS containing 2.5 mM probenecid, 0.1% BSA, 2 mM HEPES. 100 μl of that same buffer is left in each well.
(§8) Within the Fluorescent Imaging Plate Reader (FLIPR, Molecular Devices), antagonists are added to the plate in a volume of 50 μl, incubated for 20 min and finally 100 μl of agonist is added. Fluorescence is measured for each well at 1 second intervals, and the height of each fluorescence peak is compared to the height of the fluorescence peak induced by 10 nM orexin-A with buffer in place of antagonist.
In general terms: A change in cytosolic calcium serves as a functional read-out for many receptors and channels.

The next assay has as its target T2, human orexin-1 receptor (Homo sapiens, UniProt O43613).
T2 construct: expressed in transfected cells; host or cells: CHO cells (G418 selection)
T2 sequence (O43613 1-425): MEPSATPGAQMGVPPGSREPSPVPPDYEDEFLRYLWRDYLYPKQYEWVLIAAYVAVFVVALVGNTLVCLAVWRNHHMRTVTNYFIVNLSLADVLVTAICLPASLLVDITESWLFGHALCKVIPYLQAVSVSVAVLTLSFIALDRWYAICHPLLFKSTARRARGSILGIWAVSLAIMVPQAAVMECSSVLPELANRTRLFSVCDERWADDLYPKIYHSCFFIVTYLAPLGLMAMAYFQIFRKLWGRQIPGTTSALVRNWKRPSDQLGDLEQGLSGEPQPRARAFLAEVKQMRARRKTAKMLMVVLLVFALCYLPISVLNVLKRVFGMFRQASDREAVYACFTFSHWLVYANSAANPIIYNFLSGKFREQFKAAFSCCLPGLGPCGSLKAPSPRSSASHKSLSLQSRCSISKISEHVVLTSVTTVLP
Described as above. The class given is cell-based. The note with it: CHO cells expressing human orexin-1 receptor; agonist 10 nM human orexin-A; fluo-3 calcium signal; read-out: IC50 OX1. The method, then:
as §1, §2, §3, §4, §5, §6, §7, §8

The mark [1] stands for this setting: CHO cells expressing human orexin-2 receptor, agonist 10 nM human orexin-A, fluo-3 calcium signal.

Turning to `CCn1nc(C)c2c1CCCN([C@@H](C(=O)NC)c1ccccc1)[C@H]2CCc1cc(F)c(C)c(F)c1` [Example 4 (4S;2′R), (R)-2′-{(S)-4-[2-(3,5-difluoro-4-methyl-phenyl)-ethyl]-1-ethyl-3-methyl-4,6,7,8-tetrahydro-1H-1,2,5-triaza-azulen-5-yl}-N-methyl-2′-phenyl-acetamide], the IC50 (commonly the concentration needed to halve the response being measured) was determined as 6 nM on human orexin-2 receptor and 26 nM on human orexin-1 receptor.

For the molecule `CCn1nc(C)c2c1CCCN([C@@H](C(=O)NC)c1ccccc1)[C@H]2CCc1ccc(C)c(C)c1` [Example 2 (4S;2′R), (R)-2′-{(S)-4-[2-(3,4-dimethyl-phenyl)-ethyl]-1-ethyl-3-methyl-4,6,7,8-tetrahydro-1H-1,2,5-triaza-azulen-5-yl}-N-methyl-2′-phenyl-acetamide], the figures for the IC50 on human orexin-2 receptor (setting [1]) and at human orexin-1 receptor were 6 nM and 36 nM, respectively.

On to `CCn1nc(C)c2c1CCCN([C@@H](C(=O)NC)c1ccccc1)[C@H]2CCc1cc(F)c(C(F)(F)F)c(F)c1` [Example 1 (4S;2′R), (R)-2′-{(S)-4-[2-(3,5-difluoro-4-trifluoromethyl-phenyl)-ethyl]-1-ethyl-3-methyl-4,6,7,8-tetrahydro-1H-1,2,5-triaza-azulen-5-yl}-N-methyl-2′-phenyl-acetamide], for which the IC50 at human orexin-2 receptor (setting [1]) came to 12 nM; on human orexin-1 receptor, 22 nM.

In the case of `CCn1nc(C)c2c1CCCN([C@@H](C(=O)NC)c1ccccc1)[C@H]2CCc1ccc(C(F)(F)F)cc1F` [Example 3 (4S;2′R), (R)-2′-{1-ethyl-(S)-4-[2-(2-fluoro-4-trifluoromethyl-phenyl)-ethyl]-3-methyl-4,6,7,8-tetrahydro-1H-1,2,5-triaza-azulen-5-yl}-N-methyl-2′-phenyl-acetamide], the IC50 was found to be 18 nM at human orexin-2 receptor (setting [1]) and 138 nM at human orexin-1 receptor.
